Experiment [1] has as its target T1, Neuronal acetylcholine receptor; alpha3/beta4 (Rattus norvegicus) (UniProt P04757+P12392). In words: Antagonist activity at rat alpha3beta4 nAChR expressed in Xenopus laevis oocytes assessed as inhibition of acetylcholine-induced mean current response by measuring remaining current at 100 uM by two-electrode voltage clamp electrophysiology assay relative to control; values are per cent of control. Background: Two-electrode voltage clamp holds a large cell at a set potential and records current.

Experiment [2] concerns Mus musculus. As to the kind of experiment: Antinociceptive activity in mouse assessed as maximum latency at 10 mg/kg, administered as intratracheally after 5 mins by tail-flick assay. It counts as functional. On the technique in general: Hot-plate and tail-flick tests time the reaction to a heat stimulus.
For experiment [3], the target named is T2, Neuronal acetylcholine receptor; alpha4/beta2 (Rattus norvegicus) (UniProt P09483+P12390). As to the kind of experiment: Antagonist activity at rat alpha4beta2 nAChR expressed in Xenopus laevis oocytes assessed as inhibition of acetylcholine-induced mean current response by measuring remaining current at 100 uM by two-electrode voltage clamp electrophysiology assay relative to control; values are per cent of control.

Experiment [4] concerns Mus musculus. In words: Antinociceptive activity in mouse assessed as spontaneous locomotor activity at 10 mg/kg, sc measured for 10 mins. It counts as functional.
Experiment [5] concerns the target Neuronal acetylcholine receptor; alpha4/beta2 (Rattus norvegicus, UniProt P09483+P12390). As to the kind of experiment: Displacement of [3H]-epibatidine from alpha4beta2 nAChR in rat cerebral cortex homogenates after 4 hrs by liquid scintillation counting. It counts as tissue-based.
In experiment [6] the target is Neuronal acetylcholine receptor subunit alpha-7 (Rattus norvegicus) (UniProt Q05941). As to the kind of experiment: Agonist activity at rat alpha7 nAChR expressed in Xenopus laevis oocytes assessed as mean current response at 100 uM by two-electrode voltage clamp electrophysiology assay relative to acetylcholine. It counts as cell-based.
The subject of experiment [7] is Mus musculus. As to the kind of experiment: Antinociceptive activity in mouse assessed as reduction of body rectal temperature at 10 mg/kg, sc. Further details: scale not given: the % may be the effect or the level left. It counts as functional.
Experiment [8] relates to Mus musculus. In words: Antinociceptive activity in mouse assessed as inhibition of nicotine-induced antinociception at 1000 ug/kg, sc after 5 mins by hot-plate test. It counts as functional.
For experiment [9], the target named is T1, Neuronal acetylcholine receptor; alpha3/beta4 (Rattus norvegicus). As to the kind of experiment: Agonist activity at rat alpha3beta4 nAChR expressed in Xenopus laevis oocytes assessed as mean current response at 100 uM by two-electrode voltage clamp electrophysiology assay relative to acetylcholine. It counts as cell-based.
The subject of experiment [10] is Mus musculus. In words: Antinociceptive activity in mouse assessed as jumping or licking of paw behavior at 10 mg/kg, sc after 5 mins by hot-plate test. It counts as functional.
Experiment [11] relates to Mus musculus. In words: Antinociceptive activity in intratracheally dosed mouse assessed as inhibition of nicotine-induced antinociception after 5 mins by tail-flick assay. It counts as functional.
The target in experiment [12] is T2, Neuronal acetylcholine receptor; alpha4/beta2 (Rattus norvegicus). In words: Agonist activity at rat alpha4beta2 nAChR expressed in Xenopus laevis oocytes assessed as mean current response at 100 uM by two-electrode voltage clamp electrophysiology assay relative to acetylcholine. It counts as cell-based.
In experiment [13] the target is Neuronal acetylcholine receptor subunit alpha-7 (Rattus norvegicus) (UniProt Q05941). In words: Antagonist activity at rat alpha7 nAChR expressed in Xenopus laevis oocytes assessed as inhibition of acetylcholine-induced mean current response by measuring remaining current at 100 uM by two-electrode voltage clamp electrophysiology assay relative to control; values are per cent of control.

The test system of experiment [14] is Mus musculus. As to the kind of experiment: Antinociceptive activity in mouse assessed as inhibition of nicotine-induced antinociception at 10000 ug/kg, sc after 5 mins by hot-plate test. It counts as functional.

A word on the Ki: it is a measure of affinity in units of concentration, obtained from inhibition or displacement. A word on the inhibition in vivo: it is the share of the control response that was lost under treatment.

Chain of Neuronal acetylcholine receptor subunit alpha-7 (Rattus norvegicus) (Q05941 whole entry): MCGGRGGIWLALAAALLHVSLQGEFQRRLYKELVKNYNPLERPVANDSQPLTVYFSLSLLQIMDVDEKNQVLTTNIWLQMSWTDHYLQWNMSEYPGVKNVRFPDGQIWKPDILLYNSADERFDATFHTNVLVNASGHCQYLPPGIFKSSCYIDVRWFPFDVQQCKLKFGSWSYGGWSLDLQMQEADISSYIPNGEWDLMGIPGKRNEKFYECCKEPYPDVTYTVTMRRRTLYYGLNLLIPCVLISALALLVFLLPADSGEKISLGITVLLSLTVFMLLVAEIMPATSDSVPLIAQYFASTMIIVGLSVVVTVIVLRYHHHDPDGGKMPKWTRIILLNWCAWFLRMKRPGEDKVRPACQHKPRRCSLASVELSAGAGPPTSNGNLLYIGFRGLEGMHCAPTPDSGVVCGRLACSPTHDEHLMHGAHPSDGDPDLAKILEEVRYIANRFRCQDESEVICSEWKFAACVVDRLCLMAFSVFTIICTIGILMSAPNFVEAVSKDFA
Chain of Neuronal acetylcholine receptor; alpha4/beta2 (P09483 whole entry): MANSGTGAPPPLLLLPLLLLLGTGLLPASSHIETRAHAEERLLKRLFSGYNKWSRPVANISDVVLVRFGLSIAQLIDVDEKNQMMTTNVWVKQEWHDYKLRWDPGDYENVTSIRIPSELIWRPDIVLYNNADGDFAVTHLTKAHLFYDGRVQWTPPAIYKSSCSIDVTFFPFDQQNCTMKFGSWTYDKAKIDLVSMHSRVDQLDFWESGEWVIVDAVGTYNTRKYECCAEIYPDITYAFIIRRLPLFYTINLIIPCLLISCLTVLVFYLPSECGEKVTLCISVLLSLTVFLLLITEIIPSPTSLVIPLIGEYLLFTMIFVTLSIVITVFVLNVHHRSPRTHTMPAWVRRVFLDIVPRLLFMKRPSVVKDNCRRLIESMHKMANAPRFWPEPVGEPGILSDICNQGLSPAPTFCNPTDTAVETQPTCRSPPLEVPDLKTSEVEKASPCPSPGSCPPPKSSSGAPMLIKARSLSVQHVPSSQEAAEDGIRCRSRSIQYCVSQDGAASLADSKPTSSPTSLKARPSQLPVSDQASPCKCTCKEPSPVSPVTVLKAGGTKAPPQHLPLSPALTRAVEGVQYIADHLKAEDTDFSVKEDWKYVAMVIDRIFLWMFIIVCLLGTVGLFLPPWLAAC
Chain of Neuronal acetylcholine receptor; alpha4/beta2 (P12390 whole entry): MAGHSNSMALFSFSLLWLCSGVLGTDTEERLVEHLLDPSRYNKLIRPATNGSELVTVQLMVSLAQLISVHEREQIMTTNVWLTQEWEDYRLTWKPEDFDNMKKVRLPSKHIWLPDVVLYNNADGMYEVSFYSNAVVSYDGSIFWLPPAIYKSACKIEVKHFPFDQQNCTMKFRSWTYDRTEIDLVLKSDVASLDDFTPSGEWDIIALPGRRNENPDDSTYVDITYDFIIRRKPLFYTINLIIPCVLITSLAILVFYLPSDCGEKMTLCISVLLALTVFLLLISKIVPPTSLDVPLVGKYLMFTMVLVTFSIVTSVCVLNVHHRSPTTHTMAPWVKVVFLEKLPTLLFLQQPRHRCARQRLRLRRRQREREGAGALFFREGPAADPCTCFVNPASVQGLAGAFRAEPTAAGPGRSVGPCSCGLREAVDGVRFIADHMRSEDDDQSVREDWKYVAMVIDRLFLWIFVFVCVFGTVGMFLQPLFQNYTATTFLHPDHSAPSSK

With `Nc1cc(-c2cncc([C@H]3C[C@H]4CC[C@H]3N4)c2)ccn1` (racemic), the results for the residual activity in [1], in [3] and in experiment [13] were 4.2%, 5.2% and 44%, respectively. Further, the Activity was determined as 1% in the experiment on Mus musculus [2]; 20% in the experiment on Mus musculus [4]; 12% in experiment [6]; 0% in the experiment with Mus musculus [7]; 1.2% in experiment [9]; 5% in the experiment on Mus musculus [10]. For the same molecule, the Activity in [12] was 0%. Also, the inhibition constant Ki in [5] stood at 0.38 nM. Also, the inhibition in vivo at 1 mg/kg in the experiment on Mus musculus [8] is 32%. Moreover, in the experiment with Mus musculus [11], the AD50 was 1 µg/kg.

As for `Nc1ccc(-c2cncc([C@H]3C[C@H]4CC[C@H]3N4)c2)cn1` (racemic), the residual activity in experiment [1] came out at 5.4%; in experiment [3], 5.7%; in [13] it was 46%. In addition, the Activity was determined as 3% in the experiment with Mus musculus [2]; 20% in the experiment with Mus musculus [4]; 7% in experiment [6]; 0% in the experiment with Mus musculus [7]; 0% in experiment [9]; 14% in the experiment with Mus musculus [10]. For the same molecule, the Activity in experiment [12] came to 0%. In addition, the inhibition constant Ki in [5] was 0.9 nM. For the same molecule, the AD50 with Mus musculus [11] is 1.5 µg/kg. The inhibition in vivo at 10 mg/kg with Mus musculus [14] came to 50%.

The values above are taken from ChEMBL document CHEMBL3608275, “Synthesis, nicotinic acetylcholine receptor binding, in vitro and in vivo pharmacology properties of 3'-(substituted pyridinyl)-deschloroepibatidine analogs” (Bioorg Med Chem, 2015).
